Legend:
leucémie L1210 = assay: Antitumour activity in the L1210 leukaemia model, survival; assay type: in vivo, souris B6D2F1/J; details: for Nombre d'animaux survivants: at 30 days
Source text: L'activité antitumorale du DAH et du LAH a été étudiée sur le modèle de leucémie L1210. Les cellules leucémiques L1210 sont maintenues par passages intrapéritonéaux dans la souris B6D2F1/J mâle. […] La durée d'observation est de 30 jours.

[1] = LD50 comparison of DAH and LAH; details: in vivo

For N[C@@H](CC(=O)NO)C(=O)O [LAH, L-aspartique acide β hydroxamate, reference compound], the T/Cx100 (leucémie L1210; 1,5 g/kg x4/j, day 1) was 50%, the “Nombre d'animaux survivants” value (leucémie L1210; 1,5 g/kg x4/j, day 1) was 0/5 and the T/Cx100 (leucémie L1210; 1 g/kg x4/j, days 1,2) was 65%. For the same compound, the “Nombre d'animaux survivants” value (leucémie L1210; 1 g/kg x4/j, days 1,2) was 0/5, the activité antitumorale (leucémie L1210; lighter protocol than for DAH) was “on n'a pas observé d'activité antitumorale” and the toxicité (leucémie L1210; lighter protocol, treated animals died before the control group) was “toxicité très importante”. For the same compound, the toxicité (leucémie L1210; same dosage conditions as DAH (1 g/kg, 4 times a day, 3 days)) was “très toxique” and the “DL 50 %” value [1] was 2,5 g/kg.

Reference: patent EP0470144B1, “BETA-HYDROXAMATE D-ASPARTIC ACID FOR TREATMENT OF VIRAL INFECTIONS AND TUMOURS” (priority 1989, dated 1990)
